The results in this text go back to patent publication US8846733B2, “Oxazolyl-methylether derivatives as ALX receptor agonists” (Actelion Pharmaceuticals Ltd., priority 2010, dated 2014).

Series [1] concerns the target T1, recombinant human ALX receptor (Homo sapiens, UniProt P25090).
T1 construct: expressed in transfected cells; host or cells: HEK293 (HEK293-hALXR-Gα16)
T1 sequence (P25090 1-351): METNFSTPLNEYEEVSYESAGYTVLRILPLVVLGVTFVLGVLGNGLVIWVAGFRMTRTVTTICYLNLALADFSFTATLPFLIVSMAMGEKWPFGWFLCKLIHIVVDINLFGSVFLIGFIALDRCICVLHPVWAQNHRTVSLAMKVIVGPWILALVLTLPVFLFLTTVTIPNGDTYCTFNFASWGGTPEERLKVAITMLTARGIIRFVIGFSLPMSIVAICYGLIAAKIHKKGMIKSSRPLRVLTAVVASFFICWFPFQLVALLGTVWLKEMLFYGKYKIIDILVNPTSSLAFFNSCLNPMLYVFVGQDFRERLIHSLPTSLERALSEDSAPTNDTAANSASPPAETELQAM
As to the kind of experiment: Intracellular calcium measurements (FLIPR), ALX receptor agonistic activity. The format is cell-based. The note with it: HEK293-hALXR-Gα16 cells; Table 1, exemplified compounds. How it is done:
The ALX receptor agonistic activity of the compounds of formula (I) is determined in accordance with the following experimental method.
Intracellular Calcium Measurements:
Cells expressing recombinant human ALX receptor and the G-protein Gα16 (HEK293-hALXR-Gα16) were grown to 80% confluency in Growing Medium (GM). Cells were detached from culture dishes with a cell dissociation buffer (Invitrogen, 13151-014), and collected by centrifugation at 1,000 rpm at rt for 5 min in Assay Buffer (AB) (equal parts of Hank's BSS (Gibco, 14065-049) and DMEM without Phenol Red (Gibco, 11880-028)). After 60 min incubation at 37° C. under 5% CO2 in AB supplemented with 1 μM Fluo-4 (AM) (Invitrogen, F14202) and 20 mM HEPES (Gibco, 15630-056), the cells were washed and resuspended in AB. They were then seeded onto 384-well FLIPR assay plates (Greiner, 781091) at 50,000 cells in 70 μl per well and sedimented by centrifugation at 1,000 rpm for 1 min. Stock solutions of test compounds were made up at a concentration of 10 mM in DMSO, and serially diluted in AB to concentrations required for activation dose response curves. WKYMVm (Phoenix Peptides) was used as a reference agonist. A FLIPR Tetra instrument (Molecular Devices) was operated according to the manufacturer's standard instructions, adding 4 μl of test compound dissolved at 10 mM in DMSO and diluted prior to the experiment in assay buffer to obtain the desired final concentration. Changes in fluorescence were monitored before and after the addition of test compounds at lex=488 nm and lem=540 nm. Emission peak values above base level after compounds addition were exported after base line subtraction. Values were normalized to high-level control (WKYMVm compound, 10 nM final concentration) after subtraction of the base line value (AB addition).

A short description of series [2]: Plasma stability assay, human plasma. The class given is in vitro ADME. The following applies: for remaining concentration at Tlast / half-life at 1 μM: human plasma; for half-life at 1 μM: pH 7.4, 37° C. How it is done: (§1) Rat or human plasma adjusted at pH 7.4 with lactic acid or ammonium hydroxide, were equilibrated at 37° C. under orbital shaking in an incubator containing 5% CO2. The reaction was initiated by the addition of 1 μM of compounds (1 μl of 1 mM stock solution in DMSO in 999 μl of plasma). At 0.01 h, 0.25 h, 0.5 h, 1 h, 2 h, 4 h, 6 h and 24 h, aliquots (30 μl) were transferred in a 96 well plate containing 90 μl MeOH placed on ice to stop the reaction. After vortexing for 20 min at 1400 rpm on an Eppendorf thermomixer, the plates were centrifuged at 3220 g for 20 min at 4° C. and the supernatants were analyzed with LC-MSMS. Calibration samples in plasma containing 0.1% of dichlorvos were prepared and analysed in parallel to the incubation samples to allow the quantification. Half lives in hours were then calculated. In addition the remaining concentration of the respective compound after time Tlast relative to the concentration at the beginning has been determined (table 3).

Series [3] can be described thus: Plasma stability assay, rat plasma. The note with it: for half-life at 1 μM: pH 7.4, 37° C. The format is in vitro ADME. As for the experimental part: as §1
Series [4] in a line: Plasma stability assay with tritiated compounds, rat plasma. The format is in vitro ADME. As for the experimental part: (§2) Rat or human plasma adjusted at pH 7.4 with lactic acid were equilibrated at 37° C. under orbital shaking. The reaction was initiated by the addition of 10 μM of tritiated compound (7.5 μl of 1 mM stock solution in DMSO in 742.5 μl of plasma). At the beginning and after 4 h, 6 h and 24 h, aliquots (100 μl) were transferred in a tube containing 400 μl MeOH placed on ice to stop the reaction. After vortexing for 20 min at 1400 rpm on an Eppendorf thermomixer, the plates were centrifuged at 3220 g for 20 min at 4° C. and an aliquot of supernatants was analyzed with liquid chromatography coupled to a H3-radiodetector. The remaining pellet was further extracted with AcCN in three additional cycles of resuspension, mixing 20 min at 2000 rpm on an eppendorf thermomixer and centrifugation (3220 g for 20 min at 4° C.). The total radioactivity was measured in the collected supernatants. The final pellet was then solubilized in NaOH 1N and the total radioactivity was measured (table 4).

Series [5] can be described thus: Plasma stability assay with tritiated compounds, human plasma. The format is in vitro ADME. As for the experimental part:
as §2

Molecules are shown by their SMILES.

The term EC50 denotes the concentration that produces a half-maximal response. What is called half-life is the time in which the quantity being followed falls by half. Low values mean fast loss, high ones slow loss. As for `COCc1coc(Cn2ncc(NC(=O)c3nc(C)oc3-c3cccc(C)c3)n2)n1` [Example 2, N-(2-((4-(Methoxymethyl)oxazol-2-yl)methyl)-2H-1,2,3-triazol-4-yl)-2-methyl-5-(m-tolyl)oxazole-4-carboxamide], in series [1], the EC50 was determined as 1.7 nM. The “remaining concentration at Tlast” value in series [2] (Tlast 24 h) came to 101%; in series [3] (Tlast 24 h) it was 88%. In addition, the half-life at 1 μM in series [2] and in series [3] was greater than 24 h throughout. Moreover, the “stability in plasma, in words” value in series [2] (rat and human plasma, compared with reference compound 11 / compounds of WO 2009/077990) is on record as “remarkably more stable”.
In the case of `CC(=O)c1coc(Cn2ncc(NC(=O)c3nc(C)oc3-c3cccc(C)c3)n2)n1` [reference compound 11, N-(2-((4-acetyloxazol-2-yl)methyl)-2H-1,2,3-triazol-4-yl)-2-methyl-5-(m-tolyl)oxazole-4-carboxamide], the “remaining concentration at Tlast” value in series [2] (Tlast 6 h) was 18%; in series [3] (Tlast 6 h) it was 42%. Moreover, the half-life at 1 μM in series [2] is 2.4 h; in series [3] it was 4.7 h. The total radioactivity in series [4] (rat plasma pellet, nominal incubation time 0.01 h) worked out at 419 dpm; in series [4] (rat plasma pellet, nominal incubation time 4.0 h) it was 124853 dpm; in series [4] (rat plasma pellet, nominal incubation time 6.4 h), 153683 dpm; in series [4] (rat plasma pellet, nominal incubation time 24.4 h), 180032 dpm; in series [4] (rat plasma supernatant, nominal incubation time 0.01 h, 10 μM tritiated compound) it was 173116 dpm; in series [4] (rat plasma supernatant, nominal incubation time 4.0 h), 94798 dpm. Moreover, the total radioactivity in series [4] (rat plasma supernatant, nominal incubation time 6.4 h) worked out at 45228 dpm; in series [4] (rat plasma supernatant, nominal incubation time 24.4 h), 4816 dpm; in series [5] (human plasma pellet, nominal incubation time 0.01 h), 918 dpm; in series [5] (human plasma pellet, nominal incubation time 4.0 h), 170136 dpm; in series [5] (human plasma pellet, nominal incubation time 6.4 h) it was 185420 dpm; in series [5] (human plasma pellet, nominal incubation time 24.4 h), 227567 dpm. Moreover, the total radioactivity in series [5] (human plasma supernatant, nominal incubation time 0.01 h, 10 μM tritiated compound) came to 158854 dpm; in series [5] (human plasma supernatant, nominal incubation time 4.0 h) it was 38918 dpm; in series [5] (human plasma supernatant, nominal incubation time 6.4 h), 10532 dpm; in series [5] (human plasma supernatant, nominal incubation time 24.4 h), 3134 dpm. Further, the “association of drug related material with plasma proteins, in words” value in series [5] (rat and human plasma, tritiated compound, radioactivity moving from supernatant to pellet) is listed as “strong association of drug related material with plasma proteins”.
